# Reference: patent US9096534B2, “Pyridazinone compound and use thereof” (SUMITOMO CHEMICAL COMPANY, LIMITED, priority 2006, dated 2015)
# Key:
# Lolium multiflorum = experiment: Post-emergence treatment test in dry field; assay type: in vivo; conditions: 500 g/ha; foliar spray at first to second leaf stage; 20 days after treatment; 0 = no effect, 10 = complete death
# Protocol: A plastic cup with a diameter of 8 cm and a depth of 6.5 cm was filled with commercially available soil, onto which seeds of Lolium multiflorum were sowed, covered with soil about 0.5 cm high and then grown in a greenhouse. When the plants were grown in first to second leaf stage, a prescribed dosage of a dilute liquid formulation comprising Compound I-a-1 was sprayed to whole plants uniformly. The dilute liquid formulation was prepared by dissolving a prescribed amount of Compound I-a-1 in a dimethylformamide solution (2%) of Tween 20 (polyoxyethylene sorbitan fatty acid ester, from MP Biomedicals, Inc.) and then diluting with deionized water. The plants after treatment with the liquid formulation were grown in a greenhouse and 20 days after the treatment, the efficacy of the compound against Lolium multiflorum was visually evaluated by rating in eleven levels from 0 to 10 (assigned as 0 for no effect and 10 for complete death while values falling in between these values were rated from 1 to 9 levels accordingly).
# The other present compounds and Compound A described in J. Heterocycl. Chem., vol. 42, pp. 427-435 (2005) as a comparative example were similarly tested.
# Apera spica-venti = experiment: Pre-emergence treatment test in dry field; assay type: in vivo; conditions: 500 g/ha; sprayed to soil surface after sowing; three weeks after treatment; 0 = no effect, 10 = complete death
# Protocol: A plastic container (32 cm×22 cm×8 cm in height) was filled with soil sterilized by steam, onto which seeds of Apera spica-venti were sowed and covered with soil about 0.5 cm high. A prescribed dosage of a dilute liquid formulation comprising Compound I-a-1 was sprayed to the soil surface uniformly. The dilute liquid formulation was prepared by the method similar to that in Test example 1. The plants after treatment with the liquid formulation were grown in a greenhouse and three weeks after the treatment, the efficacy of the compound against Apera spica-venti was visually evaluated by rating in eleven levels from 0 to 10 similarly to Test example 1.
# The other present compounds and Compound A as a comparative example were similarly tested.
smiles,measurement,setting,value
Cc1ccccc1-c1c(O)cnn(C)c1=O [Compound A],"efficacy against Lolium multiflorum, visually evaluated by rating in eleven levels from 0 to 10",Lolium multiflorum,1
same,"efficacy against Apera spica-venti, visually evaluated by rating in eleven levels from 0 to 10",Apera spica-venti,1
